Measurements reported in patent US11147883B2, “Targeted delivery of drugs, therapeutic nucleic acids and functional nucleic acids to mammalian cells via intact killed bacterial cells” (EnGeneIC Molecular Delivery Pty Ltd, priority 2006, dated 2021).

Test system: human breast cancer cells MDA-MB-468 xenograft
Experiment: Human breast cancer MDA-MB-468 xenograft in nude mice, i.v. treatment, tumor volume
Assay type: in vivo, Balb/c nu/nu mice
Conditions: i.v. doses on days 21, 28 and 34, 1×10^8 bacteria/dose or free Doxorubicin 7 mg/kg
Method: An anti-EGFR monoclonal antibody was selected because the xenografted cells were human breast cancer cells MDA-MB-468 that are known to overexpress the EGF receptor on the cell surface.
Human breast adenocarcinoma cells (MDA-MB-468, ATCC; human mammary epithelial cells; non-phagocytic) were grown in tissue culture to full confluency in T-75 flasks in RPMI 1640 medium supplemented with 5% Bovine Calf Serum (GIBCO-BRL Life Technologies, Invitrogen Corporation, Carlsbad, Calif., USA) and glutamine (Invitrogen) in a humidified atmosphere of 95% air and 5% CO2 at 37° C. 1×10^6 cells in 50 uL serum-free media together with 50 uL growth factor reduced matrigel (BD Biosciences, Franklin Lakes, N.J., USA) were injected subcutaneously between the shoulder blades of each mouse using a 23-gauge needle. The tumors were measured twice a week using an electronic digital caliper (Mitutoyo, Japan, precision to 0.001) and mean tumor volume was calculated using the formula, length (mm)×width^2 (mm)×0.5=volume (mm^3). 16 days post-implantation, the tumors reached volumes between 40 mm^3 and 70 mm^3, and mice were randomized to four different groups of five per group.
The experiment was designed as follows. Group 1 (control) received an i.v. dose of 100 μl of sterile physiological saline. Group 2 (control) received an i.v. dose of free Doxorubicin (7 mg/kg of mouse body weight). […]

COc1cccc2c1C(=O)c1c(O)c3c(c(O)c1C2=O)C[C@@](O)(C(=O)CO)C[C@@H]3O[C@H]1C[C@H](N)[C@H](O)[C@H](C)O1 [free doxorubicin, Doxorubicin]
anti-tumor effect (tumor volume, FIG. 1): no anti-tumor effects
